Source: patent US20120142730A1 (priority 2010, published 2012)

Tested on: subjects with relapsing remitting multiple sclerosis (RRMS)
Assay: ALLEGRO phase III trial: MRI endpoints (lesions, brain volume, MTR, 1H-MRS)
Format: in vivo, human
Parameters: key to BA from M12 to M24: percent change of brain volume (SIENA); Change in average MTR of T2 visible lesions / T2 volume / Hypointense T1 volume / GdE volume: unit not given here
Details: for BA at month 12, reduction / BA (brain atrophy, percent brain volume change) at month 12: baseline to 12 months
Protocol: Eligible subjects were equally randomized 1:1 into one of the following treatment arms: • 1. […] 21, 2007 (see, page 10, line 5 to page 11, line 3). • 2. Matching placebo for laquinimod arm: one capsule is administered once daily. MRI related secondary endpoints were the cumulative number of GdE lesions at months 12 and 24; and the cumulative number of new T2 lesions (relative to previous scan) at months 12 and 24; MRI exploratory endpoints included percent change of brain volume using SIENA.^10 Additional MRI methodological details are as follows: In all patients, MRI scans were performed at 0, 12, and 24 months. Before a site could enrol study participants they were required to image a volunteer patient with definite MS twice with repositioning according to a strict study imaging protocol using scanners with a minimum field strength of 1.5T. Fast/turbo spin echo (repetition time [TR]=2200-3500 ms, echo time [TE]=14-50/90-120 ms, echo train length=2-7, slice thickness=3 mm, and contiguous axial slices= • 44) sequences were used to obtain proton density and T2-weighted images. High resolution pre-contrast 3D T1-weighted sequences (TR=8-15 ms, TE=3-5 ms, inversion time=1.1 s, number of slices 160, slice thickness 1.2 mm, flip angle [FA]=10-15, orientation sagittal) were acquired for quantification of brain atrophy. Finally, T1-weighted images (1.5 T scanners: conventional spin echo sequence; TR=600-650 ms, TE=10-20 ms, slice thickness=3 mm, and contiguous axial slices=44; 3.0 T scanners: 3D sequence; TR=5-9 ms, TE=2-5 ms, FA=15, slice thickness=3 mm, and contiguous axial slices=44) were obtained 5 minutes after injection of 0.1 mmol/kg of gadolinium. A series of axial, coronal, and sagittal images was obtained to create an axial reference scan for subsequent careful repositioning of each patient at the follow-up session. Axial slices were positioned to run parallel to a line joining the most inferioanterior and inferioposterior parts of the corpus callosum. Image quality was reviewed at the MRI-AC using predetermined criteria. The identification of GdE and T2-hyperintense lesions was done by consensus of two experienced observers. The number of total and new GdE lesions and new/enlarging T2-hyperintense lesions were counted. The identified lesions were then outlined by trained technicians using a semiautomated segmentation technique based on local thresholding (Jim 4.0; […] System, Leicester, UK) and lesion volumes were calculated automatically. Percentage brain volume changes and cross-sectional normalized brain volumes were measured on […] T1-weighted images, with Structural Image Evaluation of Normalized Atrophy (SIENA) software and a cross-sectional method ([…]) (available from the FMRIB Software Library, Oxford University, Oxford, UK; http://www.fmrib.ox.ac.uk/analysis/research/[…]). Analyses of the secondary MRI endpoints of the cumulative number of GdE and new/enlarging T2 lesions at 12 and 24 months involved a baseline-adjusted negative binomial regression with an “offset” employing the log of the relative exposure to adjust for early-terminated patients. The model included as covariates the number of enhancing lesions at baseline, and country or geographical region. In the case of new/enlarging T2 lesion analysis, the baseline T2 lesion volume was also added. […] The analysis of the brain atrophy endpoint involved a baseline-adjusted analysis of covariance (ANCOVA). The covariates were the number of GdE lesions at baseline and the country or region. The exploratory endpoints were all analyzed at a significance level of 5%. Secondary endpoints of the ALLEGRO trial included disease activity as measured by MRI, including counts of Gadolinium enhancing T1 lesions and new-T2 hyperintense lesions. […] Conventional MRI scans for new T1 hypointense lesions, and brain volume using SIENA were performed at baseline, 12 and 24 months. […]

[1] = 0.6 mg daily oral vs placebo, listed as laquinimod
[2] = 0.6 mg daily oral, listed as laquinimod
[3] = post-hoc, not naïve, vs placebo

CCN(C(=O)c1c(O)c2c(Cl)cccc2n(C)c1=O)c1ccccc1 [Laquinimod, laquinimod]
Cumulative new Hypointense T1 lesions months 12 + 24, mean (0.6 mg daily oral): 1.468 | Cumulative number of GdE lesions at months 12 and 24, mean (0.6 mg daily oral): 1.332 | Cumulative number of GdE lesions at months 12 and 24, median (0.6 mg daily oral): 0.00 | Cumulative number of new/enlarging T2 lesions at 12 and 24 months, mean (0.6 mg daily oral): 5.032 | Cumulative new Hypointense T1 lesions months 12 + 24, reduction (0.6 mg daily oral vs placebo): 27% reduction | Cumulative number of new/enlarging T2 lesions at 12 and 24 months, reduction (0.6 mg daily oral vs placebo): 30% reduction | Percent change of brain volume baseline to month 24, reduction in brain atrophy (0.6 mg daily oral vs placebo): 32.8% reduction | Percent change of brain volume from baseline to month 24, adjusted mean difference (0.6 mg daily oral vs placebo): 0.426 | BA at month 12, reduction (0.6 mg daily oral vs placebo): 53% reduction | BA at month 12, reduction [1]: 51.7% | Cumulative new Hypointense T1 lesions months 12 + 24, reduction [1]: 26.7% | Cumulative number of new/enlarging T2 lesions at 12 and 24 months, reduction [1]: 30% | Percent change of brain volume baseline to month 24, reduction in brain atrophy [1]: 32.8% | Percent change of brain volume from baseline to month 24, adjusted mean change (0.6 mg daily oral, SIENA): −0.871% | BA (brain atrophy, percent brain volume change) at month 12 (0.6 mg daily oral): −0.358% | BA (brain atrophy, percent brain volume change) at month 12 [2]: −0.358% | Cumulative new Hypointense T1 lesions months 12 + 24, mean [2]: 1.47 | Adjusted mean change in NAA/Cr from baseline to month 24 (1H-MRS subgroup, n=12): 0.087 | Change in average MTR of T2 visible lesions (MT MRI subgroup, n=43): −0.005 | Change in mean MTR whole brain from baseline to last observed value (LOV) (MT MRI subgroup, n=44): +0.045 | Change in mean MTR whole brain baseline to LOV, difference from placebo (MT MRI subgroup, p=0.0180): 0.483 | Change in average MTR of T2 visible lesions, difference from placebo (MT MRI subgroup, p=0.1007): 0.330 | Hypointense T1 volume, change BL to M24 (baseline to month 24): 7%^ | T2 volume, change BL to M24 (baseline to month 24): 11.5%^ | Hypointense T1 volume (month 12): 2.805 | T2 volume (month 12): 8.005 | Hypointense T1 volume, effect (month 12, vs placebo): ~1% | T2 volume, effect (month 12, vs placebo): 5% | Hypointense T1 volume (month 24): 2.829 | T2 volume (month 24): 8.111 | Hypointense T1 volume, effect (month 24, vs placebo): ~1% | T2 volume, effect (month 24, vs placebo): 5% | BA for pts with all scans, change BL to M12 (post-hoc): −0.337 | BA for pts with all scans, change BL to M24 (post-hoc): −0.855 | BA from M12 to M24 (post-hoc): −0.548 | % BV change M24 (post-hoc, GdE = 0): −0.859% | % BV change M24, reduction (post-hoc, GdE = 0, vs placebo): 30% reduction | % BV change M24 (post-hoc, GdE > 0): −0.881% | % BV change M24, reduction (post-hoc, GdE > 0, vs placebo): 37% reduction | GdE counts (post-hoc, M12): 0.731 | GdE lesion free (post-hoc, M12): 69% ^ | GdE volume (post-hoc, M12): 1.058 | New T2 lesion # (post-hoc, M12): 2.81 | New-T1 Hypointense Lesions (post-hoc, M12): 1.074 | T1 Hypointense Lesion free (post-hoc, M12): 56.3% ^ | T2 lesion free (post-hoc, M12): 30.8% ^ | GdE counts, reduction (post-hoc, M12, vs placebo): 36% reduction | GdE lesion free, effect on odds (post-hoc, M12, vs placebo): 49% odds | GdE volume, effect (post-hoc, M12, vs placebo): 4.5% | New T2 lesion #, effect (post-hoc, M12, vs placebo): 33.5% | New-T1 Hypointense Lesions, reduction (post-hoc, M12, vs placebo): 27% reduction | T1 Hypointense Lesion free, effect on odds (post-hoc, M12, vs placebo): 28% odds | T2 lesion free, effect on odds (post-hoc, M12, vs placebo): 39% odds | GdE counts (post-hoc, M24): 0.482 | GdE lesion free (post-hoc, M24): 74.5% ^ | GdE volume (post-hoc, M24): 1.045 | New T2 lesion # (post-hoc, M24): 4.45 | New-T1 Hypointense Lesions (post-hoc, M24): 1.230 | T1 Hypointense Lesion free (post-hoc, M24): 52.8% ^ | T2 lesion free (post-hoc, M24): 20.3% ^ | GdE counts, reduction (post-hoc, M24, vs placebo): 39% reduction | GdE lesion free, effect on odds (post-hoc, M24, vs placebo): 72% odds | GdE volume, effect (post-hoc, M24, vs placebo): 4.7% | New T2 lesion #, effect (post-hoc, M24, vs placebo): 31.5% | New-T1 Hypointense Lesions, reduction (post-hoc, M24, vs placebo): 32% reduction | T1 Hypointense Lesion free, effect on odds (post-hoc, M24, vs placebo): 47% odds | T2 lesion free, effect on odds (post-hoc, M24, vs placebo): 40% odds | % BVC BL to M24 (post-hoc, MRI free NO): −1.001% | % BVC BL to M24, effect (post-hoc, MRI free NO, vs placebo): 65.5% | % BVC BL to M24 (post-hoc, MRI free YES): −0.533% | % BVC BL to M24, effect (post-hoc, MRI free YES, vs placebo): 45.5% | % BV change by previous medications (post-hoc, naïve): −0.82% | Cum # T1 GdE by previous medications (post-hoc, naïve): 1.135 | Cum New T2 by previous medications (post-hoc, naïve): 4.967 | T1 hypointense by previous medications (post-hoc, naïve): 1.585 | % BV change by previous medications, reduction (post-hoc, naïve, vs placebo): 38% reduction | Cum # T1 GdE by previous medications, reduction (post-hoc, naïve, vs placebo): 42% reduction | Cum New T2 by previous medications, reduction (post-hoc, naïve, vs placebo): 33% reduction | T1 hypointense by previous medications, reduction (post-hoc, naïve, vs placebo): 28% reduction | Cum # T1 GdE by previous medications (post-hoc, not naive): 1.746 | Cum # T1 GdE by previous medications, reduction (post-hoc, not naive, vs placebo): 32% reduction | % BV change by previous medications (post-hoc, not naïve): −0.954% | Cum New T2 by previous medications (post-hoc, not naïve): 5.075 | T1 hypointense by previous medications (post-hoc, not naïve): 1.217 | % BV change by previous medications, reduction [3]: 23% reduction | Cum New T2 by previous medications, reduction [3]: 24% reduction | T1 hypointense by previous medications, reduction [3]: 25% reduction | BA for pts with all scans, change BL to M12, effect (post-hoc, vs placebo): 60% | BA for pts with all scans, change BL to M24, effect (post-hoc, vs placebo): 57%
